Earlier results in patent US4451566A, “Methods and apparatus for enzymatically producing ethanol” (priority 1981, dated 1984).

System: Glucokinase (2.7.1.2), present in liver
Settings: read-out: KM for d-glucose, phosphorylation of d-glucose with ATP as phosphate donor

OC[C@H]1OC(O)[C@H](O)[C@@H](O)[C@@H]1O (stereo partly drawn) [d-glucose]
Km: 100 mM
